We go through six molecules from US8377913B2, “Vitamin D receptor activators and methods of making” (AbbVie Inc., priority 2007, dated 2013).

For data set [1], the system named is Thrombospondin mRNA in human coronary artery smooth muscle cells (CASMC). The experiment in a line: Thrombospondin mRNA in CASMC. In kind it is cell-based. As to conditions: Homo sapiens. On the procedure:
(§1) Primary culture of human coronary artery smooth muscle cells (CASMC) (commercially available from Cambrex, Walkersville, Md.) were grown in smooth muscle growth medium SmGM-2 (commercially available from Lonza Bioscience) containing 5.5 mM glucose, 5% FBS, 50 μg/ml gentamicin, 50 ng/ml amphotericin-B, 5 μg/ml insulin, 2 ng/ml human recombinant fibroblast growth factor (hFGF), and 0.5 ng/ml human recombinant epidermal growth factor (hEGF) at 37° C. in a humidified 5% CO2-95% air atmosphere. Cells were grown to >80% confluence and used within five passages.
(§2) Real-time reverse transcription-PCR was performed with a MyiQ Real-Time PCR Detection System (BioRad, Hercules, Calif.). Each sample has a final volume of 25 μl containing 100 ng of cDNA, […] each of the forward and reverse PCR primers and […] of the TaqMan™ probe for the gene of interest (Applied Biosystems, Foster City, Calif.). Temperature conditions consisted of a step of 5 minutes at 95° C., followed by 40 cycles of 60° C. for 1 minute and 95° C. for 15 seconds. Data was collected during each extension phase of the PCR reaction and analyzed with the software package (BioRad, Hercules, Calif.). Threshold cycles were determined for each gene. […]

For data set [2], the system named is Thrombomodulin mRNA in human coronary artery smooth muscle cells (CASMC). The experiment in a line: Thrombomodulin mRNA in CASMC. In kind it is cell-based. The settings on record: for EC50: Homo sapiens. The method, then:
as §1, §2

The next data set has as its system Male, C57BL6, mice. The experiment in a line: Normal Mouse Calcemia Model. In kind it is in vivo. As to conditions: s.c. once daily for 3 days, dose giving 1 mg/dL change in total Ca. On the procedure: Male, C57BL6, mice were obtained from Jackson Laboratories. The mice were habituated for four days while maintained on a normal diet (D10001, Research Diets Inc.). Treatment was initiated with vehicle (20% ethanol/30% propylene glycol/50% water, 0.05 mL, s.c.) or test agent administered over a three log dose range. The animals were dosed once daily for 3 days. Twenty-four hours after the last dose, animals were anesthetized with ketamine/xylazine (100/18 mg/kg) and bled by cardiac puncture for measurement of PTH and other end points.
Measurement of PTH and minerals: Calcium (Ca), serum phosphorus (Pi), creatinine and BUN were measured from serum using an Abbott Aeroset® (Abbott Laboratories, Abbott Park, Ill.). Blood ionized calcium (iCa) was determined using the i-STAT® system (Abbott Laboratories, East Windsor, N.J.). Serum PTH was measured using a mouse parathyroid hormone (PTH) EIA kit obtained from ALPCO/Immutopics, Inc. (Windham, N.H.). Selected data is shown is Table 6. The graphs in FIG. 4 give an indication of dose response. Notable is that Example 1 produced an approximately 30% reduction in PTH over at least a three log dose range without a concomitant elevation of serum calcium of greater than 1 mg/dL.
Data analysis: Mean±standard error of the mean was calculated for each group. One way ANOVA followed by a Dunnett's test was used to assess differences between vehicle and drug-treated groups. *p<0.05=significance.

Data set [3] concerns PAI-1 mRNA in human coronary artery smooth muscle cells (CASMC). The data set can be described thus: PAI-1 mRNA in CASMC. As to conditions: Homo sapiens. In kind it is cell-based. The method, then: as §1, §2
Data set [4] relates to Renin mRNA in As4.1 cells. The experiment in a line: Renin mRNA in As4.1 cells transfected with pcDNA-hVDR (real-time RT-PCR). In kind it is cell-based. On the procedure:
As4.1 cells (ATCC, Manassas, Va.) were cultured in Dulbecco's Modified Eagle Medium DMEM (commercially available from Invitrogen, Carlsbad, Calif.) with 10% fetal bovine serum at 37° C. in a humidified 5% CO2-95% air atmosphere. C3;ells were transfected with the pcDNA-hVDR plasmid (provided by Yan Chun Li, University of Chicago) by LIPOFECTAMINE™ 2000 (Invitrogen, Carlsbad, Calif.). siRNA was transfected with the pcDNA-hVDR plasmid by LIPOFECTAMINE™ 2000 according to the manufacturer's protocol. Twenty-four hours after transfection, cells were treated with test agents.
Real-time reverse transcription-PCR was performed with a MyiQ Real-time PCR Detection System (commercially available from BioRad, Hercules, Calif.). […] TaqMan™ probes that were 5′ labeled with the reporter 6-carboxyfluorescein (FAM) and 3′ labeled with the quencher tetramethylrhodamine (TAMRA) were used and the primer and probe sets were obtained from Applied Biosystems (Foster City, Calif.). Temperature conditions consisted of a step of 5 minutes at 95° C., followed by 45 cycles of 60° C. for 1 minute and 95° C. for 15 seconds. Data was collected during each extension phase of the PCR reaction and analyzed with the accompanying software package (BioRad, Hercules, Calif.). Threshold cycles were determined for each gene.

Data set [5] concerns Human promyelocytic leukemia (HL60) cells. The data set can be described thus: HL-60 Differentiation. In kind it is cell-based. The settings on record: HL-60, 96 h, four days incubation, NBT, absorbance 570 nm. The method, then:
Human promyelocytic leukemia (HL60) cells were obtained from the American Type Culture Collection (ATCC Cat. # CCL-240, Manassas, Va.). Cells were maintained in RPMI 1640 medium (commercially available from Invitrogen, Carlsbad, Calif.) containing 10% fetal bovine serum (commercially available from Invitrogen, Carlsbad, Calif.) at 37° C. with 5% CO2. Cells were passaged weekly and were not allowed to become >90% confluent. For the assay, cells were plated at 5×10^5 cells per well in 200 uL media. Test compounds were diluted in media in concentrations between 10^−6-10^−10 M and then added to the appropriate wells. Cells were then incubated for four days at 37° C. in 5% CO2 atmosphere. After incubation, media was aspirated from each well and 75 uL of NBT solution (nitroblue tetrazolinium: 200 ng/mL PMA (phorbol 12-myrystate 13-acetate) and 2 mg/ml NBT (nitroblue tetrazolium) in distilled H2O) was added to each well followed by further incubation for 2 hours at 37° C. Following incubation, 150 uL lysis buffer (225 mL dimethylformamide, 67.5 g SDS). PMA stock solution (2 mg/ml in ethanol) was added to each well and the plate was allowed to sit at room temperature for 4 hours. HL-60 cell differentiation was assayed, Effect of each compound on cell growth was examined as a function of time; absorbance in each well was measured at 570 nm.

For data set [6], the target named is T1, recombinant full-length human Vitamin D nuclear receptor (Homo sapiens, UniProt P11473).
T1 sequence (P11473 1-427): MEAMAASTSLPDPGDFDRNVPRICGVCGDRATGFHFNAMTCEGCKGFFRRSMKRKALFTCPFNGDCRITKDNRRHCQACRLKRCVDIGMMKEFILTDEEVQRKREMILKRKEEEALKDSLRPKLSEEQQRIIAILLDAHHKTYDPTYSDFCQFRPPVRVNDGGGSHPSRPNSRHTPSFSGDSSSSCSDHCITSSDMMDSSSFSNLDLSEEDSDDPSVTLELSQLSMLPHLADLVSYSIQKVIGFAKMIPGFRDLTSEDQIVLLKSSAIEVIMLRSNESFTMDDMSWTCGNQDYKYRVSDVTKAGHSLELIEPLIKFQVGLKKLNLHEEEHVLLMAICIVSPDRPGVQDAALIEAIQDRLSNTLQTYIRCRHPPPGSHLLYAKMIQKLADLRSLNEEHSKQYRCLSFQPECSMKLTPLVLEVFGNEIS
The experiment in a line: biochemical.
Protocol: In vitro binding of selected compounds according to the invention to VDR was assessed using the following procedure. […] Each test compound was then serially diluted in binding buffer to concentrations appropriate for the assay, as one skilled in the art can determine.
Final assay volume was 100 uL. The filled plate was incubated overnight at 4° C. with gentle shaking. After 18 hours of incubation, 20 uL of wheat germ agglutinin-coated yttrium silicate scintillation proximity assay (SPA) beads (commercially available from Amersham Biosciences, Piscataway, N.J.; Part # RPNQ0270) resuspended in binding buffer was added to each well (200 ug/well) and the plate was incubated at room temperature for 2 hours with gentle shaking.

In data set [7] the test system is VDR (VDRE-luciferase-reporter construct). The experiment in a line: VDRE Reporter Gene Assay in HEK cells with stable expression of VDR. In kind it is cell-based. The settings on record: Homo sapiens, HEK293, 24 hours. On the procedure:
Compound activity was also assessed by looking at a Vitamin D Response Element (VDRE) reporter gene assay, Human Embryonic Kidney cells (HEK cells) with a stable expression of VDR were cultured in 96-well plates at ˜4×10^5 cells/mL (100 μL/well) in DMEM medium containing 10% fetal calf serum. Cells were transfected with 0.2 μg per well of a VDRE-luciferase-reporter construct (from Y. Li, University of Chicago) and then treated with test agents at indicated concentrations for 24 hours. The luciferase activity was then measured following the manufacturer's instructions (Promega, Madison, Wis.).

In the case of `C=C1/C(=C\C=C2/CCC[C@]3(C)[C@@H]([C@H](C)CCCC(C)(C)O)CC[C@@H]23)C[C@@H](O)C[C@@H]1O` [Calcitriol, 1,25-dihydroxyvitamin D3, reference compound], the IC50 in data set [1] turned out to be 19.1 nM; in data set [3] it was 0.8 nM; in data set [4] it was 1.6 nM. In addition, the figures for the EC50 in data set [2] and in data set [5] were 1.6 nM and 7 nM, respectively. For the same molecule, in the data set on Male, C57BL6, mice, the “1 mg/dL Δ total Ca” value was 0.026 µg/kg.
Regarding `C=C1[C@H](O)CC(=C/C=C2\CCC[C@]3(C)[C@@H]([C@H](C)CO)CC[C@@H]23)C[C@H]1O` [Example 2, (1R,3R,7E,17β)-17-[(1S)-2-hydroxy-1-methylethyl]-2-methylene-9,10-secoestra-5,7-diene-1,3-diol], the IC50 in data set [1] is 3.7 nM; in data set [6] it was 890 nM; in data set [3] it was 0.03 nM; in data set [4] it was 0.7 nM. For the same molecule, the “Thrombomodulin mRNA in CASMC EC50” value in data set [2] is “inactive”. In addition, the EC50 in data set [7] came out at 52.7 nM; in data set [5], 162 nM.
Regarding `C=C1[C@H](O)CC(=C/C=C2\CCC[C@]3(C)[C@@H]([C@@H](C)COC(=O)C(C)(C)C)CC[C@@H]23)C[C@H]1O` [Example 3, (2R)-2-[(1R,3R,7E,17β)-1,3-dihydroxy-2-methylene-9,10-secoestra-5,7-dien-17-yl]propyl pivalate], the IC50 in data set [1] stood at 0.002 nM; in data set [6], 1330 nM; in data set [3], 0.003 nM; in data set [4], 0.4 nM. In addition, the EC50 came out at 39.9 nM in data set [2], 0.9 nM in data set [7] and 3.9 nM in data set [5].
Turning to `C=C1[C@H](O)CC(=C/C=C2\CCC[C@]3(C)[C@@H]([C@H](C)COC(=O)C(C)(C)CC)CC[C@@H]23)C[C@H]1O` [Example 4, (2S)-2-[(1R,3R,7E,17β)-1,3-dihydroxy-2-methylene-9,10-secoestra-5,7-dien-17-yl]propyl 2,2-dimethylbutanoate], the IC50 in data set [1] came to 0.001 nM; in data set [6] it was 62.4 nM; in data set [3], 0.02 nM; in data set [4], 3.4 nM. Besides, the results for the EC50 in data set [2], in data set [7] and in data set [5] were 84.7 nM, 1.3 nM and 0.7 nM, respectively.
In the case of `C=C1[C@H](O)CC(=C/C=C2\CCC[C@]3(C)[C@@H]([C@H](C)COC(=O)NC(C)(C)C)CC[C@@H]23)C[C@H]1O` [Example 5, (2S)-2-[(1R,3R,7E,17β)-1,3-dihydroxy-2-methylene-9,10-secoestra-5,7-dien-17-yl]propyl tert-butylcarbamate], the IC50 turned out to be 0.001 nM in data set [1], 0.1 nM in data set [6], 0.002 nM in data set [3] and 2.4 nM in data set [4]. In addition, the EC50 in data set [2] is 5.6 nM; in data set [7], 0.3 nM.
As to `C[C@H](/C=C/[C@H](C)C(C)(C)O)[C@H]1CC[C@H]2/C(=C/C=C3C[C@@H](O)C[C@H](O)C3)CCC[C@]12C` [Paricalcitol, paricalcitol, reference compound], the IC50 in data set [1] stood at 0.2 nM; in data set [6], 14.6 nM; in data set [3], 0.5 nM; in data set [4], 0.8 nM. Besides, the EC50 in data set [2] worked out at 1.5 nM; in data set [7], 5.9 nM; in data set [5] it was 16 nM. Besides, in the data set with Male, C57BL6, mice, the “1 mg/dL Δ total Ca” value was 0.286 µg/kg.
